Consider nine molecules from patent US8163795B2, “Chroman derivatives, medicaments and use in therapy” (Marshall Edwards, Inc., priority 2004, dated 2012).

The IC50 is the concentration that inhibits the measured activity by half.

In assay [1] the test system is CP70 ovarian cancer cell line. The experiment in a line: Proliferation assay (MTT). The assay is classed as cell-based. To be noted: Table 2.2 (further studies); Ovarian CP70; read-out: IC50.
Assay [2] concerns MDA-MB-468 breast cancer cell line. The experiment in a line: Proliferation assay (MTT). To be noted: Homo sapiens, MDA-MB-468, Table 2.2; Breast MDA-MB-468; read-out: IC50. The assay is classed as cell-based.
Another assay deals with HT-29 (Colorectal). Nature of the assay: Proliferation assay (MTT). The assay is classed as cell-based. To be noted: Homo sapiens, HT-29, Table 2.2; Colorectal HT-29. The protocol: (§1) All cultures were supplemented with 10% FCS (fetal calf serum CSL, Australia), penicillin (100 U/ml), streptomycin ([…]), L-glutamine (2 mM) and sodium bicarbonate (1.2 g/L), and cultured at 37° C. in a humidified atmosphere of 5% CO2. All cell lines were purchased from ATCC (Maryland, USA) except where noted.
(§2) IC50 values were determined for each cell line. Cells were seeded in 96-well plates at an appropriate cell density as determined from growth kinetics analysis and cultured for 5 days in the absence and presence of the test compounds. Cell proliferation was assessed after the addition of 20 μl of 3-4,5 dimethylthiazol-2,5-diphenyl tetrazolium bromide (MTT, 2.5 mg/ml in PBS, Sigma) for 3-4 hrs at 37° C. according to manufacturer's instructions. IC50 values were calculated from semi-log plots of % of control proliferation on the y-axis against log dose on the x-axis.

Another assay has as its system NCI-H460 (Lung). Nature of the assay: Proliferation assay (MTT). The assay is classed as cell-based. The following applies: Homo sapiens, NCI-H460, Table 2.2; NSC Lung NCI-H460. As to the method:
as §1, §2

Assay [3] relates to PC3 prostate cancer cell line. The experiment in a line: Proliferation assay (MTT). It is filed as cell-based. To be noted: Table 2.2. As to the method: as §1, §2
A further assay relates to CCRF-CEM (Leukemic). The experiment in a line: Proliferation assay (MTT). It is filed as cell-based. To be noted: Homo sapiens, CCRF-CEM, Table 2.2; Leukaemia CCRF-CEM. As to the method: as §1, §2
The subject of a further assay is HTB-138 (Glioma). The experiment in a line: Proliferation assay (MTT). The assay is classed as cell-based. The following applies: Table 2.2; Glioma HTB-138. As to the method:
as §1, §2

Assay [4] deals with HPAC (CRL-2119) pancreatic cancer cell line. Nature of the assay: Proliferation assay (MTT). It is filed as cell-based, human. To be noted: Homo sapiens, HPAC, Table 2.2; Pancreatic HPAC; read-out: IC50.
The next assay relates to TXB2. The experiment in a line: Eicosanoid synthesis in LPS-stimulated murine macrophages (RAW 264.7). The assay is classed as cell-based, mouse. To be noted: 10 μM; negative values indicate inhibition. As to the method: (§3) The mouse macrophage cell line RAW 264.7 was cultured in DMEM supplemented with foetal calf serum (FCS), 2 mM glutamine and 50 U/ml penicillin/streptomycin. Subconfluent cells were detached from the flask by gentle scraping and 24-well plates seeded at 5×10^5 cells per well and allowed to adhere for 1 hr. Cells were then treated either test compound at a concentration of 10 μM (in 0.025% DMSO) or vehicle alone, and incubated for 1 hr. LPS 50 ng/ml (LPS—Sigma-Aldrich) was then added. After incubation for 16 hrs, culture media was collected and stored at −80° C. for ecosanoid measurements using enzyme immunometric assays (PGE2 and TXB2—Cayman Chemical).
(§4) Table 16: Percentage change in eicosanoid synthesis after incubating test compound at 10 μM compared with incubation with vehicle alone.

The subject of the next assay is PGE2. Described as above. The assay is classed as cell-based, mouse. The following applies: 10 μM; negative values indicate inhibition. The protocol: as §3, §4
The test system of assay [5] is MM200 melanoma cell line. The experiment in a line: Proliferation assay (MTT). The assay is classed as cell-based. The following applies: Table 2.2; Melanoma MM200; read-out: IC50.
In the next assay the test system is TNFα. The experiment in a line: Inhibition of TNFα in LPS-stimulated murine macrophages (RAW 264.7). The assay is classed as cell-based, mouse. The following applies: for Inhibition of TNFα, dose dependence: over the concentration ranges tested. The protocol:
The mouse macrophage cell line RAW 264.7 was cultured in DMEM supplemented with FCS, 2 mM glutamine and 50 U/ml penicillin/streptomycin. Subconfluent cells were detached from the flask by gentle scraping and 24-well plates seeded at 5×10^5 cells per well and allowed to adhere for 1 hr. Cells were treated with either test agent (in 0.025% DMSO) or vehicle alone, 1 hr prior to the addition of 50 ng/ml LPS. After incubation for 16 hrs, culture media was collected and stored at −80° C. for TNFα measurement using an enzyme immunometric assay (Becton Dickinson).

In assay [6] the test system is Mel-RM melanoma cell line. Nature of the assay: HMC combination with doxorubicin (synergy). The assay is classed as cell-based. To be noted: Table 12, single agent. The protocol:
(§5) IC50 values were determined for each cell line. Cells were seeded in 96-well plates at an appropriate cell density as determined from growth kinetics analysis and cultured for 5 days in the absence and presence of the test compounds. […] IC50 values were calculated from semi-log plots of % of control proliferation on the y-axis against log dose on the x-axis.
(§6) 3-D model analysis of the cytotoxic interaction between drug A and drug B enables the representation of predicted inhibitory effect of two drugs in combination in 3 dimensions to reveal actual regions of synergy or antagonism. […] Theoretical Additivity was calculated from the cytotoxicities of drug A and drug B as monotherapies using the following formula which assumes the drugs are mutually exclusive inhibitors: […]
HMC synergy with doxorubicin was assessed either in combination over 5 days exposure or in sequence (HMC→doxorubicin) against the Mel-RM melanoma cell line.

In assay [7] the test system is Mel-RM melanoma cell line. The experiment in a line: HMC combination with gemcitabine (synergy). It is filed as cell-based. To be noted: Table 9, single agent. The protocol: as §2
(§7) 3-D model analysis of the cytotoxic interaction between drug A and drug B enables the representation of predicted inhibitory effect of two drugs in combination in 3 dimensions to reveal actual regions of synergy or antagonism. The 3D synergy plots are based on a theory of “Theretical Additivity” (TA) as outlined by Kanzawa et al (Int. J. Cancer 71, 311-319 (1997)). Theoretical Additivity was calculated from the cytotoxicities of drug A and drug B as monotherapies using the following formula which assumes the drugs are mutually exclusive inhibitors: […]
(§8) The TA is calculated for each combination of drug concentrations and subtracted from the observed experimental effect for each combination to give a measurement of synergisitic action.
HMC synergy with gemcitabine was assessed either in combination over 5 days exposure or in sequence (HMC→gemcitabine) against the Mel-RM melanoma cell line. It was difficult to assess for synergisitic toxicity using a change in IC50 as a measure of synergy due to HMC toxicity as monotherapy (Table 9). […] Evidence of synergy using the HMC-gemcitabine combination was further assessed using the HMC→gemcitabine sequence (24 hr exposure to each compound in sequence) against the melanoma cell line Mel-RM. Using change in IC50 to assess for synergy it was noted that HMC at concentrations of 2 and 1 μM markedly chemosensitised the Mel-RM cells to gemcitabine by >1000 fold. HMC-induced chemosensitisation of Mel-RM cells to gemcitabine was confirmed using 3D analysis of the data.

A further assay concerns 4405 melanoma cell line. Nature of the assay: HMC combination with paclitaxel (synergy). It is filed as cell-based. The following applies: Table 10; single agent, 24 hr exposure; read-out: IC50, 24 hr (monotherapy). As to the method:
as §2, §7, §8
HMC synergy with paclitaxel was assessed either in combination over 5 days exposure or in sequence (HMC→paclitaxel) against the 4405 melanoma cell line. It was difficult to assess for synergisitic toxicity using a change in IC50 as a measure of synergy due to HMC toxicity as monotherapy (Table 10). […] Evidence of synergy using the HMC-paclitaxel combination was further assessed using the HMC→paclitaxel sequence (24 hr exposure to each compound in sequence) against the melanoma cell line 4405. Using change in IC50 to assess for synergy it was noted that HMC at concentrations of 2 μM markedly chemosensitised the 4405 cells to paclitaxel by >1000 fold (Table 10). HMC-induced chemosensitisation of […] cells to paclitaxel was confirmed using 3D analysis of the data.

For assay [8], the system named is MM200 melanoma cell line. Nature of the assay: HMC combination with topotecan (synergy). It is filed as cell-based. To be noted: Table 11, single agent. The protocol: as §5, §6
HMC synergy with topotecan was assessed either in combination over 5 days exposure or in sequence (HMC→topotecan) against the MM200 melanoma cell line.

The mark [9] stands for this setting: Concentration 10 μM, RAW 264.7, LPS 50 ng/ml, 16 hrs.
The mark [10] stands for this setting: 120 h, 5 days exposure, read-out: IC50, Combined (monotherapy).
[11] abbreviates: 24 hr exposure, read-out: IC50, 24 hr (monotherapy).

Structures are written as SMILES.

For `Oc1ccc(C2COc3cc(O)ccc3C2c2ccccc2)cc1` (stereo not shown) [Compound 2, 3-(4-hydroxyphenyl)-4-phenylchroman-7-ol], the half-inhibitory concentration (IC50) in [1] amounted to 3 ± 1.2 µM; in [2] it was 1.9 µM; in the assay on HT-29 (Colorectal) it was 59.4 µM; in the assay on NCI-H460 (Lung), 5.4 ± 2.1 µM; in assay [3], 4.2 ± 0.02 µM; in the assay on CCRF-CEM (Leukemic) it was 4.02 µM. Also, the IC50 in the assay on HTB-138 (Glioma) amounted to 3.77 µM; in assay [4] it was 24.4 ± 12 µM; in the assay on MM200 melanoma cell line [5], 7.34 µM. Also, the “Percentage change in TXB2 synthesis vs vehicle alone” value with TXB2 is given as 16%. For the same molecule, the “Percentage change in PGE2 synthesis vs vehicle alone” value in the assay with PGE2 is given as −12.6%.

Turning to `COc1ccc(C2c3ccc(O)cc3OCC2c2ccc(OC)c(OC)c2)cc1` (stereo not shown) [Compound 4, 3-(3,4-dimethoxyphenyl)-4-(4-methoxyphenyl)chroman-7-ol], the “Inhibition of TNFα” value is −14.3 with TNFα (Concentration 0.001 μM); −11.3 in the assay on TNFα (Concentration 0.01 μM); −6.3 with TNFα (Concentration 0.1 μM); −11.9 in the assay on TNFα (Concentration 1 μM); −6.1 with TNFα (setting [9]).

For the molecule `COc1ccc(C2COc3cc(OC)ccc3C2c2ccc(OC)cc2)cc1` (stereo not shown) [Compound 6, 3-(4-methoxyphenyl)-4-(4-methoxyphenyl)-7-methoxychroman], the half-maximal inhibitory concentration (IC50) is > 100 µM in assay [1]; 28.7 ± 3.6 µM in [2]; > 100 µM in the assay on HT-29 (Colorectal); 116 ± 57 µM in assay [3]; 92 ± 81.6 µM with CCRF-CEM (Leukemic); > 100 µM in the assay on HTB-138 (Glioma). Further, the IC50 (in assay [4]; in the assay on MM200 melanoma cell line [5]) was > 100 µM throughout. Also, the “Percentage change in TXB2 synthesis vs vehicle alone” value in the assay on TXB2 is −16.4%. In addition, the “Percentage change in PGE2 synthesis vs vehicle alone” value with PGE2 is given as −37.7%. Also, the “Inhibition of TNFα” value is 1.0 in the assay with TNFα (Concentration 0.001 μM), −10.4 with TNFα (Concentration 0.1 μM), −13.0 with TNFα (Concentration 1 μM) and −48.7 in the assay on TNFα (setting [9]). Further, the “Inhibition of TNFα, dose dependence” value in the assay on TNFα is listed as “inhibit TNFα in murine macrophages in a dose dependent manner”.

In the case of `COc1cc(O)cc(OC)c1C1c2ccc(O)cc2OCC1c1ccc(O)cc1` (stereo not shown) [Compound 7, 3-(4-hydroxyphenyl)-4-(2,6-dimethoxy-4-hydroxyphenyl)chroman-7-ol], the “Inhibition of TNFα” value in the assay on TNFα (Concentration 0.001 μM) is 19.2; in the assay with TNFα (Concentration 0.1 μM), −1.4; in the assay with TNFα (Concentration 1 μM) it was −25.4; in the assay with TNFα (setting [9]) it was −26.2. Further, in the assay on TNFα, the “Inhibition of TNFα, dose dependence” value was “inhibit TNFα in murine macrophages in a dose dependent manner”.

`Nc1cccc(C2c3ccc(O)cc3OCC2c2ccc(O)cc2)c1` (stereo not shown) [Compound 14, 3-(4-hydroxyphenyl)-4-(3-aminophenyl)chroman-7-ol]: the IC50 in [1] is > 100 µM; in [2] it was 56.6 µM; in the assay with HT-29 (Colorectal), 45 ± 4.7 µM; with NCI-H460 (Lung), 65 µM; in [3], 32.5 ± 2.1 µM; in the assay on CCRF-CEM (Leukemic) it was 73 ± 51.6 µM. Further, the figures for the 50% inhibitory concentration (IC50) (in the assay on HTB-138 (Glioma); in assay [4]; with MM200 melanoma cell line [5]) were 53.5 ± 14 µM, 79 ± 56 µM and 93 ± 2.9 µM, respectively.

`COc1cccc2c1C(=O)c1c(O)c3c(c(O)c1C2=O)C[C@@](O)(C(=O)CO)C[C@@H]3O[C@H]1C[C@H](N)[C@H](O)[C@H](C)O1` [Doxorubicin, doxorubicin, reference compound]: the 50% inhibitory concentration (IC50) in assay [6] (setting [10]) came to 190 nM; in assay [6] (setting [11]), 100 nM.

As to `Nc1ccn([C@@H]2O[C@H](CO)[C@@H](O)C2(F)F)c(=O)n1` [Gemcitabine, gemcitabine, reference compound], the figures for the IC50 in assay [7] (setting [10]) and in assay [7] (setting [11]) were 3.88 nM and 4.67 nM, respectively.

In the case of `CC(=O)O[C@H]1C(=O)[C@@]2(C)[C@H]([C@H](OC(=O)c3ccccc3)[C@]3(O)C[C@H](OC(=O)[C@H](O)[C@@H](NC(=O)c4ccccc4)c4ccccc4)C(C)=C1C3(C)C)[C@]1(OC(C)=O)CO[C@@H]1C[C@@H]2O` [Paclitaxel, paclitaxel, reference compound], the IC50 in the assay with 4405 melanoma cell line came to 0.584 nM.

Regarding `CC[C@@]1(O)C(=O)OCc2c1cc1n(c2=O)Cc2cc3c(CN(C)C)c(O)ccc3nc2-1` [Topotecan, topotecan, reference compound], the IC50 in the assay on MM200 melanoma cell line [8] (setting [10]) amounted to 95 nM; in the assay on MM200 melanoma cell line [8] (setting [11]), 2220 nM.
